Measurements reported in ChEMBL document CHEMBL1159242, “Studies on the inhibitory effects of caffeoylquinic acids on monocyte migration and superoxide ion production” (J Nat Prod, 1995).
Calls of active or inactive are those of the source. No cut-off for these calls is given here.

Columns and labels:
Monocyte [1] = test: Inhibition of healthy human monocyte migration assessed as chemotactic index at 0.01 nM after 45 mins; format: functional, cell-based
Monocyte [2] = test: Inhibition of healthy human monocyte migration assessed as chemotactic index at 0.1 pM after 45 mins; format: functional, cell-based
Monocyte [3] = test: Inhibition of healthy human monocyte migration assessed as chemotactic index at 0.001 to 0.00001 pM; format: functional, cell-based
Monocyte [4] = test: Inhibition of healthy human monocyte migration assessed as chemotactic index at 0.001 to 0.00001 pM after >45 mins; format: functional, cell-based
Monocyte [5] = test: Inhibition of O2- radical production in zymosan-stimulated healthy human monocyte measured after 1 hr at 37 degC; format: functional, cell-based
Monocyte [6] = test: Inhibition of O2- radical production in zymosan-stimulated healthy human monocyte measured after 45 mins at 37 degC; format: functional, cell-based
Monocyte [7] = test: Inhibition of O2- radical production in zymosan-stimulated healthy human monocyte assessed as increase in H2O production after 1 hr at 37 degC; format: functional, cell-based
Monocyte [8] = test: Inhibition of O2- radical production in zymosan-stimulated healthy human monocyte assessed as inhibition H2O2 production after 1 hr at 37 degC; format: functional, cell-based
[9] = Cytotoxicity against human monocytes measured by LDH activity; format: cell-based; conditions: monocyte
Monocyte [10] = test: Inhibition of healthy human monocyte migration assessed as chemotactic index at 100 nM after 45 mins; format: functional, cell-based

| SMILES | Activity (Monocyte [1]) | Activity (Monocyte [2]) | Activity (Monocyte [3]) | Activity (Monocyte [4]) | Activity (Monocyte [5]) | Activity (Monocyte [6]) | Activity (Monocyte [7]) | Activity (Monocyte [8]) | Activity [9] | Activity (Monocyte [10]) |
| --- | --- | --- | --- | --- | --- | --- | --- | --- | --- | --- |
| O=C(/C=C/c1ccc(O)c(O)c1)O[C@@H]1C[C@](O)(C(=O)O)C[C@@H](OC(=O)/C=C/c2ccc(O)c(O)c2)[C@H]1O | Active | Active | Active | inactive | Dose-dependent effect | Active | Active | Active | Non-toxic | – |
| O=C(/C=C/c1ccc(O)c(O)c1)O[C@H]1[C@H](O)C[C@](O)(C(=O)O)C[C@H]1OC(=O)/C=C/c1ccc(O)c(O)c1 | – | – | – | – | Dose-dependent effect | – | – | – | Non-toxic | inactive |
| O=C(/C=C/c1ccc(O)c(O)c1)O[C@@H]1C[C@](O)(C(=O)O)C[C@@H](OC(=O)/C=C/c2ccc(O)c(O)c2)[C@H]1OC(=O)/C=C/c1ccc(O)c(O)c1 | – | – | – | – | – | – | – | – | Non-toxic | – |
